Data as given in PubChem BioAssay AID248 (DTP/NCI, 2004).
“And” between values parts separate entries of the source, which are not always exact repeats. Identical values can stand only once. Toxic doses and inconclusive results are not listed. No stated cut-off is given here; in the data, active means T/C of 150% or more; inactive means T/C below 125%.

System: L1210 leukemia ip in BDF1 mice, survival T/C
Test: NCI In Vivo Anticancer Drug Screen. Data for tumor model L1210 Leukemia (intraperitoneal) in B6D2F1 (BDF1) mice
Conditions: endpoint: mean survival time, higher = longer survival
Summary of the method: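 Tumor cells were implanted, animals were treated, and survival was followed. The result divides the treated measurement by the vehicle-control measurement.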

[1] = dose: 100.0 mg/kg/injection, schedule: Q01DX009 (ip), vehicle: saline with Tween-80
[2] = dose: 200.0 mg/kg/injection, schedule: Q01DX009 (ip), vehicle: saline with Tween-80
[3] = dose: 400.0 mg/kg/injection, schedule: Q01DX009 (ip), vehicle: saline with Tween-80
[4] = dose: 100.0 mg/kg/injection, schedule: Q04DX003 (ip), vehicle: Klucel (hydroxypropylcellulose) (HPC)
[5] = dose: 200.0 mg/kg/injection, schedule: Q04DX003 (ip), vehicle: Klucel (hydroxypropylcellulose) (HPC)
[6] = dose: 400.0 mg/kg/injection, schedule: Q04DX003 (ip), vehicle: Klucel (hydroxypropylcellulose) (HPC)
[7] = dose: 100.0 mg/kg/injection, schedule: Q01DX001 (ip), vehicle: carboxymethylcellulose (CMC)
[8] = dose: 200.0 mg/kg/injection, schedule: Q01DX001 (ip), vehicle: carboxymethylcellulose (CMC)
[9] = dose: 400.0 mg/kg/injection, schedule: Q01DX001 (ip), vehicle: carboxymethylcellulose (CMC)
[10] = dose: 100.0 mg/kg/injection, schedule: Q04DX002 (ip), vehicle: Klucel (hydroxypropylcellulose) (HPC)
[11] = dose: 100.0 mg/kg/injection, schedule: Q01DX009 (ip), vehicle: Klucel (hydroxypropylcellulose) (HPC)
[12] = dose: 200.0 mg/kg/injection, schedule: Q01DX009 (ip), vehicle: Klucel (hydroxypropylcellulose) (HPC)
[13] = dose: 400.0 mg/kg/injection, schedule: Q01DX009 (ip), vehicle: Klucel (hydroxypropylcellulose) (HPC)
[14] = dose: 200.0 mg/kg/injection, schedule: Q04DX002 (ip), vehicle: Klucel (hydroxypropylcellulose) (HPC)
[15] = dose: 400.0 mg/kg/injection, schedule: Q04DX002 (ip), vehicle: Klucel (hydroxypropylcellulose) (HPC)
[16] = dose: 50.0 mg/kg/injection, schedule: Q01DX001 (ip), vehicle: carboxymethylcellulose (CMC)

Measured: T/C

O=C([S][Pb]([c]1ccccc1)([c]1ccccc1)[c]1ccccc1)c1ccccc1
inactive: dose: 2.0 mg/kg/injection, schedule: Q01DX009 (ip), vehicle: Klucel (hydroxypropylcellulose) (HPC) 109 % of control | dose: 2.0 mg/kg/injection, schedule: Q04DX003 (ip), vehicle: Klucel (hydroxypropylcellulose) (HPC) 89 % of control | dose: 4.0 mg/kg/injection, schedule: Q01DX009 (ip), vehicle: Klucel (hydroxypropylcellulose) (HPC) 123 % of control | dose: 4.0 mg/kg/injection, schedule: Q04DX003 (ip), vehicle: Klucel (hydroxypropylcellulose) (HPC) 97 % of control | dose: 8.0 mg/kg/injection, schedule: Q01DX009 (ip), vehicle: Klucel (hydroxypropylcellulose) (HPC) 90 % of control | dose: 8.0 mg/kg/injection, schedule: Q04DX003 (ip), vehicle: Klucel (hydroxypropylcellulose) (HPC) 94 % of control and 97 % of control | dose: 11.0 mg/kg/injection, schedule: Q04DX003 (ip), vehicle: Klucel (hydroxypropylcellulose) (HPC) 100 % of control

O=CNCc1cnccn1
inactive: [1] 93 % of control | [2] 95 % of control | [3] 97 % of control

O=Cc1ccc([N+](=O)[O-])cc1Cl
inactive: dose: 75.0 mg/kg/injection, schedule: Q01DX001 (ip), vehicle: other 111 % of control | dose: 150.0 mg/kg/injection, schedule: Q01DX001 (ip), vehicle: other 94 % of control | dose: 300.0 mg/kg/injection, schedule: Q01DX001 (ip), vehicle: other 97 % of control

CCCOC(=O)Nc1cccc(O)c1
inactive: [1] 92 % of control | [2] 94 % of control | [3] 88 % of control

CC1SCC(=O)CS1
inactive: dose: 100.0 mg/kg/injection, schedule: Q01DX001 (ip), vehicle: Klucel (hydroxypropylcellulose) (HPC) 93 % of control | [4] 91 % of control | dose: 200.0 mg/kg/injection, schedule: Q01DX001 (ip), vehicle: Klucel (hydroxypropylcellulose) (HPC) 96 % of control | [5] 94 % of control | dose: 400.0 mg/kg/injection, schedule: Q01DX001 (ip), vehicle: Klucel (hydroxypropylcellulose) (HPC) 96 % of control | [6] 97 % of control

CSc1nc(N)c(N=Nc2ccc(S(=O)(=O)Nc3nnc(C)s3)cc2)c(=O)[nH]1
inactive: [7] 95 % of control | [8] 97 % of control | [9] 101 % of control

CCCCN(CCCC)CCNCC(Cc1ccccc1)c1ccccc1 (configuration not stated)
inactive: [10] 93 % of control

O=C(Nc1ccccn1)Nc1ccccn1
inactive: [11] 104 % of control | [4] 98 % of control | [12] 104 % of control | [5] 87 % of control | [6] 106 % of control

COc1cccc(NC(=S)N2CCCCC2)c1
inactive: [11] 108 % of control | [12] 116 % of control | [13] 102 % of control

COc1ccc(CC(=O)NCCc2ccccc2)cc1OC
inactive: dose: 12.5 mg/kg/injection, schedule: Q01DX009 (ip), vehicle: saline with Tween-80 92 % of control | dose: 25.0 mg/kg/injection, schedule: Q01DX009 (ip), vehicle: saline with Tween-80 92 % of control | dose: 50.0 mg/kg/injection, schedule: Q01DX009 (ip), vehicle: saline with Tween-80 103 % of control and 92 % of control | [1] 105 % of control

ClCc1nc2ccccc2s1
inactive: [11] 91 % of control | [10] 92 % of control | [12] 98 % of control | [14] 103 % of control | [15] 103 % of control

COC(=O)[CH](C[N+](=O)[O-])[Hg][Cl] (configuration not stated)
inactive: dose: 3.12 mg/kg/injection, schedule: Q01DX009 (ip), vehicle: saline 94 % of control | dose: 6.25 mg/kg/injection, schedule: Q01DX009 (ip), vehicle: saline 94 % of control

NC(CSS(=O)(=O)O)=NCCCc1nc2ccccc2[nH]1
inactive: [10] 106 % of control | [14] 92 % of control | [15] 95 % of control

Cc1cc(-c2nnc(-c3ccc(O)c(C)c3)nn2)ccc1O
inactive: [1] 94 % of control | [2] 94 % of control | [3] 91 % of control

CC(C)COC(=O)c1ccccc1O
inactive: [11] 98 % of control | [4] 96 % of control | [12] 99 % of control | [5] 96 % of control | [13] 87 % of control | [6] 89 % of control

COc1ccc(C2N(C=O)CC34CC(=O)C=CC23C4)cc1O (configuration not stated)
inactive: dose: 100.0 mg/kg/injection, schedule: Q04DX003 (ip), vehicle: saline 95 % of control | dose: 200.0 mg/kg/injection, schedule: Q04DX003 (ip), vehicle: saline 93 % of control | dose: 400.0 mg/kg/injection, schedule: Q04DX003 (ip), vehicle: saline 95 % of control

COc1ccccc1CN1CCCOP1(=O)Nc1ccccc1C (configuration not stated)
inactive: [16] 109 % of control | [7] 93 % of control | [8] 96 % of control | [9] 91 % of control

CC(=O)Nc1ccc(Cl)cc1C(=O)c1ccccc1
inactive: [10] 96 % of control | [14] 108 % of control | [15] 96 % of control

CC(=O)CC(=O)Nc1ccc(Cl)cc1
inactive: [10] 105 % of control | dose: 177.0 mg/kg/injection, schedule: Q04DX002 (ip), vehicle: Klucel (hydroxypropylcellulose) (HPC) 102 % of control | [14] 86 % of control | dose: 266.0 mg/kg/injection, schedule: Q04DX002 (ip), vehicle: Klucel (hydroxypropylcellulose) (HPC) 92 % of control | [15] 95 % of control | dose: 600.0 mg/kg/injection, schedule: Q04DX002 (ip), vehicle: Klucel (hydroxypropylcellulose) (HPC) 92 % of control

CCCCCCC[CH2][Sn]([Cl])([Cl])[CH2]CCCCCCC
inactive: [16] 96 % of control | [7] 96 % of control | [8] 96 % of control | [9] 96 % of control

CC(C)c1cc2c(cc1O)C1(C)CCCC(C)(C(=O)O)C1CC2 (configuration not stated)
inactive: dose: 50.0 mg/kg/injection, schedule: Q04DX003 (ip), vehicle: acetone 87 % of control | dose: 100.0 mg/kg/injection, schedule: Q01DX001 (ip), vehicle: acetone 97 % of control | dose: 100.0 mg/kg/injection, schedule: Q04DX003 (ip), vehicle: acetone 90 % of control | dose: 200.0 mg/kg/injection, schedule: Q01DX001 (ip), vehicle: acetone 92 % of control | dose: 200.0 mg/kg/injection, schedule: Q04DX003 (ip), vehicle: acetone 89 % of control

CC(=O)Nc1ccc(C=Nc2c(N)n(C)c(=O)n(C)c2=O)cc1
inactive: [16] 94 % of control | [7] 96 % of control | [8] 94 % of control | [9] 90 % of control

COc1ccc(C(C)=O)c(OC)c1
inactive: dose: 100.0 mg/kg/injection, schedule: Q01DX001 (ip), vehicle: saline 98 % of control | dose: 100.0 mg/kg/injection, schedule: Q01DX009 (ip), vehicle: saline 112 % of control | dose: 200.0 mg/kg/injection, schedule: Q01DX001 (ip), vehicle: saline 98 % of control | dose: 200.0 mg/kg/injection, schedule: Q01DX009 (ip), vehicle: saline 94 % of control | dose: 400.0 mg/kg/injection, schedule: Q01DX001 (ip), vehicle: saline 98 % of control | dose: 400.0 mg/kg/injection, schedule: Q01DX009 (ip), vehicle: saline 102 % of control

CC(C)(C)C(=O)CC(=O)C(C)(C)C.CC(C)(C)C(=O)CC(=O)C(C)(C)C.[Zn]
inactive: dose: 100.0 mg/kg/injection, schedule: Q04DX003 (ip), vehicle: saline with Tween-80 97 % of control | dose: 200.0 mg/kg/injection, schedule: Q04DX003 (ip), vehicle: saline with Tween-80 95 % of control

COc1ccc(Br)cc1CC=O
inactive: [7] 103 % of control | dose: 177.6 mg/kg/injection, schedule: Q01DX001 (ip), vehicle: carboxymethylcellulose (CMC) 95 % of control and 105 % of control | [8] 103 % of control | dose: 266.8 mg/kg/injection, schedule: Q01DX001 (ip), vehicle: carboxymethylcellulose (CMC) 97 % of control and 103 % of control | [9] 95 % of control and 103 % of control | dose: 600.0 mg/kg/injection, schedule: Q01DX001 (ip), vehicle: carboxymethylcellulose (CMC) 97 % of control and 103 % of control

N#CCOc1cc(Cl)c(Cl)cc1Cl
inactive: [10] 107 % of control | [14] 97 % of control
